Laboratory results taken from the supplement of paper PMC10307832.

What was measured:
Experiment in all cases: relative viability (nuclei count vs DMSO), 5 days (fraction); higher = more cells survive
[1] = compound: C1/C(=C\C2=CC=CS2)/C(=O)/C(=C/C3=CC=CS3)/C1 + Cc1nc(Nc2ncc(C(=O)Nc3c(C)cccc3Cl)s2)cc(N2CCN(CCO)CC2)n1 [Dasatinib] (partner 0.075 µM)
Summary of the method: (§1)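 Nuclei were stained with Hoechst during a one-step fixation (final 0.05% Triton X-100, 1% formaldehyde, 1 ug/ml Hoechst) carried out 5 days after dosing, then counted on 4× images. The cells, lung cancer lines in 1536-well plates, had been dosed by pin tool the day after seeding with one drug alone or a fixed anchor-drug dose plus five library-drug doses (not always all listed) in √10 steps. Relative viability is the nuclei count in treated wells divided by that in vehicle wells, and each value is the median of duplicate plates.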

[2] = compound: C1/C(=C\C2=CC=CS2)/C(=O)/C(=C/C3=CC=CS3)/C1 + NC(=O)Nc1cc(-c2cccc(F)c2)sc1C(=O)N[C@H]1CCCNC1 [AZD7762] (partner 0.2 µM)
Summary of the method: as §1

[3] = compound: C1=CC(=CC=C1C2=CC(=C(S2)NC(=O)N)C(=O)N)F [TPCA-1] + NC(=O)Nc1cc(-c2cccc(F)c2)sc1C(=O)N[C@H]1CCCNC1 [AZD7762] (partner 0.2 µM)
Summary of the method: as §1

[4] = compound: C[C@]12O[C@H](C[C@]1(O)CO)n1c3ccccc3c3c4c(c5c6ccccc6n2c5c31)CNC4=O [Lestaurtinib] + O=C(c1cc(Cc2n[nH]c(=O)c3ccccc23)ccc1F)N1CCN(C(=O)C2CC2)CC1 [Olaparib] (partner 8 µM)
Summary of the method: as §1

Cell Line	relative viability ([1]; first compound 0.2 µM)	relative viability ([1]; first compound 0.6325 µM)	relative viability ([1]; first compound 2 µM)	relative viability ([1]; first compound 6.325 µM)	relative viability ([1]; first compound 20 µM)	relative viability ([2]; first compound 0.2 µM)	relative viability ([2]; first compound 0.6325 µM)	relative viability ([2]; first compound 2 µM)	relative viability ([2]; first compound 6.325 µM)	relative viability ([2]; first compound 20 µM)	relative viability ([3]; first compound 0.04 µM)	relative viability ([3]; first compound 0.1265 µM)	relative viability ([3]; first compound 0.4 µM)	relative viability ([3]; first compound 1.265 µM)	relative viability ([3]; first compound 4 µM)	relative viability ([4]; first compound 0.005 µM)	relative viability ([4]; first compound 0.01581 µM)	relative viability ([4]; first compound 0.05 µM)	relative viability ([4]; first compound 0.1581 µM)	relative viability ([4]; first compound 0.5 µM)
RERF-LC-KJ	0.858	0.798	0.776	0.682	0.656	1.09	1.04	1.05	0.87	1.06	1.03	0.844	0.914	0.739	0.652	1.13	1.07	0.961	0.952	0.399
NCI-H441	0.798	0.739	0.573	0.522	0.412	1.35	1.22	1.29	1.01	1.13	1.21	0.915	1.19	1.04	1	0.557	0.513	0.495	0.48	0.379
LCLC-103H	0.402	0.466	0.572	0.481	0.444	0.772	0.742	0.9	0.613	0.783	0.896	0.84	0.824	0.617	0.8	0.872	0.845	0.719	0.655	0.529
HCC-78	0.332	0.461	0.537	0.413	0.291	0.649	0.729	0.76	0.68	0.658	0.745	0.742	0.801	0.545	0.497	0.843	0.835	0.765	0.566	0.385
NCI-H1915	0.337	0.335	0.328	0.202	0.321	0.73	0.67	0.689	0.642	0.677	0.744	0.679	0.671	0.588	0.617	0.259	0.285	0.273	0.296	0.143
